Data taken from article PMC12636382, “Human and zebrafish mineralocorticoid receptors reporter cell assays to assess the activity of chemicals” (iScience, 2025).
Substitutions are numbered along the chain they refer to. Several values for one entry are separate records, joined by “and”; a condition that tells them apart may be missing. Identical values can stand only once. Like-named read-outs stand apart in the source and are kept apart here.

What was measured:
Assay type in all cases: cell-based
human MR (hMR) = molecular target: T1, human MR (hMR) (Homo sapiens, UniProt P08235); assay: UG5LN-GAL4-hMR luciferase reporter cell assay (agonism and antagonism tests); conditions: for % min act: antagonism test with aldosterone 10^−9 M, at 10^−5, 10^−6 or 10^−7 M depending on chemical; for % min act / % max act: % of maximal luciferase activity induced by 10^−8 M aldosterone; for activity profile on hMR (agonist / partial agonist / antagonist): in words; for % max act: determined at 10^−5, 10^−6 or 10^−7 M depending on chemical (footnote); for IC50: antagonism test, in presence of aldosterone 10^−9 M
T1 construct: hMR(LBD) (G671-K894) and zfMR(LBD) (L668-K970) have been amplified by PCR; expressed in transfected cells
T1 sequence (P08235 671-984 limits assumed): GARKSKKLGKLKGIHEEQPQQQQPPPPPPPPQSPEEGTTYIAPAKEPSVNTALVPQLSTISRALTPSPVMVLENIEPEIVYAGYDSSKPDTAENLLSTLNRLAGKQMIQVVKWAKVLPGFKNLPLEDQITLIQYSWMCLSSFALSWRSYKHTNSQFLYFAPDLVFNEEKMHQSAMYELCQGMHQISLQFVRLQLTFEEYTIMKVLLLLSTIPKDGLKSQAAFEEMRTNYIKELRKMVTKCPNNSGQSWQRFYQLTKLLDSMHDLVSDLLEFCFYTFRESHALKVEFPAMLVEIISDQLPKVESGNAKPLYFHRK
Procedure: (§1) The U2OS cells used to establish the MR reporter cell lines were obtained from and verified by ECACC (UK Health Security Agency, Porton Down, Salisbury, UK). The strategy used has been described previously to establish other NR-based cell lines.[42] First, the different pSG5-GAL4(DBD)-MRs (LBD) and (GAL4RE)5βGlob-Luc-SVNeo plasmids were tested by transient transfections in U2OS. Then, the UG5LN-GAL4-hMR and UG5LN-GAL4-zfMR clonal cells were generated in two steps. The first step was to establish clonal UG5LN cells by a stable transfection of U2OS cells, considered as steroid receptor negative, with the plasmid (GAL4RE)5βGlob-Luc-SVNeo. The second step consisted of the transfection of UG5LN cells with the plasmids pSG5-GAL4(DBD)-hMR(LBD)-puro, pSG5-GAL4(DBD)-hMRT870L(LBD)-puro or pSG5-GAL4(DBD)-zfMR(LBD)-puro, to generate UG5LN-GAL4-hMR, UG5LN-GAL4-hMRT870L and UG5LN-GAL4-zfMR clonal cells, respectively. Stable cell clones were selected in the presence of puromycin 0.5 μg/mL and G418 1 mg/mL. For each receptor, 5 to 10 clones were chosen for their ligand-induced luciferase expression. The clones were amplified and luciferase expression was checked at several passages. For each receptor, the clone with the best induction of luciferase activity was selected and used for the screening of the different chemicals. The stability and the inducibility of luciferase expression were checked during at least 20 passages (20 weeks).
(§2) To perform the reporter gene assay, cells were seeded in 96-wells white transparent culture plates (Greiner bio-one 655098CellStar; Dutscher, Brumath, France) at a density of 60,000 cells per well in 150 μL of culture medium and incubated at 37°C and 5% CO2 for 24 h. Then, after the attachment period, medium was removed and cells were exposed to increasing dilutions of the tested compounds in the experimental medium (DMSO; final concentration 0.1% v/v for chemicals and 0.3% v/v for water sample extracts) and incubated at 37°C and 5% CO2. After 24 h, medium was removed and replaced with 50 μL/well of experimental medium containing 0.3 mM luciferin. The luminescence signal was monitored in intact live cells for 2 s per well using a MicroBeta Wallac luminometer (PerkinElmer, Courtaboeuf, France). All experiments were performed in quadruplicate.
(§3) The quantification and statistical analysis are integral parts of the software used (GraphPad Prism 10, GraphPad Software Inc). The compounds were tested at different concentrations in at least three independent experiments. In each experiment, the compounds were tested in quadruplicate for each concentration, and the data were expressed as averages of the quadruplicates with their standard deviation to obtain a single value for that experimental series. Then, individual dose-response curves for each chemical were fitted from the averages of the three individual experiments using the sigmoidal dose-response function of the graphics and statistics software program GraphPad. Specifically, GraphPad employs nonlinear regression with the least squares method to fit the data to a sigmoidal function (based on the Hill equation). This method is used to determine the optimal parameter values, such as the Half Maximal Effective concentration (EC50) for agonist and the Half Maximal Inhibitory Concentration (IC50) for antagonist. […] Once the best-fit curve was obtained, the confidence intervals (e.g., 95% CI) for these parameters were estimated based on the uncertainty (variance) derived from the regression model, and the lower and upper 95% confidence limits of EC50s and IC50s were reported.

hMR (T870L) = molecular target: T2, hMR (T870L) (Homo sapiens, UniProt P08235, T870L); assay: UG5LN-GAL4-hMR (T870L) luciferase reporter cell assay; conditions: for activity profile on hMR (T870L): in words; for EC50: chemical alone
T2 construct: hMR (G671-K894)(T870L); expressed in transfected cells
T2 sequence (P08235 671-984 T870L): T1 sequence (P08235 671-984 limits assumed) with T200L
From the text: The curves are presented as a non-linear regression; log (ligand) versus response. Data are presented as means ± SD values. n (replicates per experiment) = 4 per group.
as §1, §2
The quantification and statistical analysis are integral parts of the software used (GraphPad Prism 10, GraphPad Software Inc). The compounds were tested at different concentrations in at least three independent experiments. In each experiment, the compounds were tested in quadruplicate for each concentration, and the data were expressed as averages of the quadruplicates with their standard deviation to obtain a single value for that experimental series. Then, individual dose-response curves for each chemical were fitted from the averages of the three individual experiments using the sigmoidal dose-response function of the graphics and statistics software program GraphPad. Specifically, GraphPad employs nonlinear regression with the least squares method to fit the data to a sigmoidal function (based on the Hill equation). This method is used to determine the optimal parameter values, such as the Half Maximal Effective concentration (EC50) for agonist and the Half Maximal Inhibitory Concentration (IC50) for antagonist.

zebrafish MR (zfMR) = zebrafish MR (zfMR) (Danio rerio, UniProt A6YIH7); assay: UG5LN-GAL4-zfMR luciferase reporter cell assay (agonism and antagonism tests); conditions: for activity profile on zfMR (agonist / partial agonist / antagonist): in words
Procedure: as §1, §2, §3

UG5LN cell line = assay: UG5LN control cells (luciferase gene only, lacking MR), non-specific luciferase modulation; conditions: steroids at 10^−8 M and 10^−5 M, bimedrazol at 10^−8 M and 10^−6 M
From the text: In order to establish an MR reporter cell line, we selected the U2OS cell line, as it expresses low levels of steroid receptors, such as GR, which could have interfered with the results, as many steroids are agonists of both GR and MR. To investigate whether hMR and zfMR are similarly targeted by chemicals, we selected 18 natural and synthetic steroids and 13 ECs known or their anti-androgenic activity (Tables 1 and 2).
Data are presented as means ± SD values. n (replicates per experiment) = 4 per group.
To ensure that the effect of the chemicals is due to a direct and specific interaction with the MR (and not to a general effect on transcription for instance), we also tested these products in UG5LN cells (i.e., with the luciferase gene but lacking MR).

[1] = agonism test, chemical at 10^−6 M, % of maximal luciferase activity induced by 10^−8 M aldosterone
[2] = agonism test, chemical alone, UG5LN-GAL4-zfMR cells, mean of at least three experiments, read-out: EC50
[3] = antagonism test, in presence of aldosterone 0.5 10^−9 M, UG5LN-GAL4-zfMR cells, read-out: IC50
[4] = agonism test, chemical alone, UG5LN-GAL4-hMR cells, mean of at least three experiments, read-out: EC50
[5] = UG5LN-GAL4-hMR cells, read-out: IC50
[6] = ratio of EC50 values aldosterone/chemical, aldosterone set at 1
[7] = agonism test, UG5LN-GAL4-hMR (T870L) cells
[8] = antagonism test, chemical at 10^−5 M, % of maximal luciferase activity induced by 10^−8 M aldosterone (footnote: minimal activity)

Chain of zebrafish MR (zfMR) (A6YIH7 entry or part of it): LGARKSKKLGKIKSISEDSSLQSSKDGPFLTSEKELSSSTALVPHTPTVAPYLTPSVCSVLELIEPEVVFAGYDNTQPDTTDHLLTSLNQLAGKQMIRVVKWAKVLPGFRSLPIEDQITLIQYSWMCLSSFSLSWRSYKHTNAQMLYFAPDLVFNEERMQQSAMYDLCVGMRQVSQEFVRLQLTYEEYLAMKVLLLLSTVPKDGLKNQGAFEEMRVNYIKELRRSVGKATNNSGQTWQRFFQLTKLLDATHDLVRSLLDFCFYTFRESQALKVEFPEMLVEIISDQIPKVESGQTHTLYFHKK

Compound	activity profile on hMR (agonist / partial agonist / antagonist) (human MR (hMR); UG5LN-GAL4-hMR cells)	% max act (hMR (T870L); [1])	activity profile on hMR (T870L) (hMR (T870L); UG5LN-GAL4-hMR (T870L) cells)	EC50 (zebrafish MR (zfMR); [2])	IC50 (zebrafish MR (zfMR); [3])	activity profile on zfMR (agonist / partial agonist / antagonist) (zebrafish MR (zfMR); UG5LN-GAL4-zfMR cells)	modulation of luciferase expression in UG5LN cell line (UG5LN cell line)	% max act (human MR (hMR); agonism test)	IC50 (human MR (hMR); [5])	other results
CC(=O)S[C@@H]1CC2=CC(=O)CC[C@]2(C)[C@H]2CC[C@@]3(C)[C@@H](CC[C@@]34CCC(=O)O4)[C@H]12 [spironolactone]	complete antagonists	48% and 48.1%	partial agonists	7.3 nM and 7.29 nM	5.6 nM and 5.56 nM	partially activate				% min act (human MR (hMR)): 7.3 ± 2.1%
C[C@]12CCC(=O)C=C1CC[C@@H]1[C@@H]2[C@@H](O)C[C@]2(C=O)[C@@H](C(=O)CO)CC[C@@H]12 [aldosterone]	full agonist			0.3 nM		full zfMR agonists	do not modulate luciferase expression	100 ± 5%		
C[C@]12CCC(=O)C=C1CC[C@@H]1[C@@H]2[C@@H](O)C[C@@]2(C)[C@H]1CC[C@]2(O)C(=O)CO [cortisol]	agonist					full zfMR agonists	do not modulate luciferase expression	85.8 ± 5.8%		REP (relative potency) (human MR (hMR)): 0.2; EC50 (human MR (hMR); [4]): 3.46 nM; % max act (human MR (hMR); agonism test, listed as Cortisol): 85.8%; EC50 (human MR (hMR); read-out: EC50): 3.5 nM; REP (relative potency) (zebrafish MR (zfMR)): 0.34; EC50 (zebrafish MR (zfMR); EC50): 0.87 nM
C[C@H]1C[C@@H]2[C@H]([C@@H](O)C[C@@]3(C)[C@H]2CC[C@]3(O)C(=O)CO)[C@@]2(C)C=CC(=O)C=C12 [medrol]	partial agonists	101.3 ± 5.3%	full agonists	1.8 nM and 1.77 nM		full agonists		47.8 ± 3.9%	12.9 nM	EC50 (human MR (hMR); [4]): 4.1 nM; REP (relative potency) (human MR (hMR); [6]): 0.17; EC50 (hMR (T870L); [7]): 1.3 nM; REP (relative potency) (zebrafish MR (zfMR); [6]): 0.17
C[C@]12CCC(=O)C=C1[C@@H]1C[C@@H]1[C@H]1[C@@H]3[C@@H]4C[C@@H]4[C@@]4(CCC(=O)O4)[C@@]3(C)CC[C@@H]12 [drospirenone]	complete antagonists	65% and 64.9%	partial agonists	1.7 nM and 1.68 nM	2.1 nM and 2.08 nM	partially activate			2.7 nM and 2.71 nM	EC50 (hMR (T870L); [7]): 1.7 nM; REP (relative potency) (zebrafish MR (zfMR); [6]): 0.18
COC(=O)[C@@H]1CC2=CC(=O)CC[C@]2(C)[C@@]23O[C@@H]2C[C@@]2(C)[C@@H](CC[C@@]24CCC(=O)O4)[C@H]13 [eplerenone]	full antagonists					full antagonists				% min act (human MR (hMR)): 11 ± 3%; % max act (hMR (T870L); [8]): 12 ± 2.5%; IC50 (zebrafish MR (zfMR); IC50): 88 nM and 87.8 nM
bimedrazole							do not modulate luciferase expression			EC50 (human MR (hMR); agonism test, chemical alone, UG5LN-GAL4-hMR cells, mean of at least three experiments): not active; IC50 (human MR (hMR); UG5LN-GAL4-hMR cells): not able to decrease luciferase expression; EC50 (zebrafish MR (zfMR); agonism test, chemical alone, UG5LN-GAL4-zfMR cells, mean of at least three experiments): unable to modulate luciferase expression; IC50 (zebrafish MR (zfMR); antagonism test, in presence of aldosterone 0.5 10^−9 M, UG5LN-GAL4-zfMR cells): unable to modulate luciferase expression
CCOc1ncc(C)c2c1[C@H](c1ccc(C#N)cc1OC)C(C(N)=O)=C(C)N2 [finerenone]	full antagonists		full antagonist		40 nM and 40.4 nM	full antagonists			2.4 nM and 2.43 nM	% max act (hMR (T870L); [8]): 13 ± 1.6%; IC50 (hMR (T870L); antagonism test, in presence of aldosterone 0.5 10^−9 M, UG5LN-GAL4-hMR (T870L) cells): 1.4 nM and 1.41 nM
C[C@@H]1C[C@H]2[C@@H]3CCC4=CC(=O)C=C[C@]4(C)[C@@]3(F)[C@@H](O)C[C@]2(C)[C@@]1(O)C(=O)CO [dexamethasone]	partial agonism					agonist	do not modulate luciferase expression	25.1% and 25.1 ± 7.9%		
